From US6699970B2, “Mutacin I biosynthesis genes and proteins” (priority 2000, dated 2004)

Legend:
enterococci = assay: antimicrobial spectrum assay; assay type: cell-based; conditions: comparison of mutacin I and mutacin III
Group A streptococci = assay: antimicrobial spectrum assay; assay type: cell-based; conditions: comparison of mutacin I and mutacin III
[1] = reverse-phase HPLC analysis (hydrophobicity); assay type: physicochemical; conditions: from acetonitrile concentration at elution
Excerpt: For purification, the crude extract of mutacin I (SEQ ID No: 2) was applied to a Source 15RPC column and eluted with a fragmented gradient A (0.1% TFA) and B (0.085% TFA in 60% acetonitrile) using a LKB Purifier (Amersham Pharmacia Biotech, Piscataway, N.J.). The active fractions were pooled and dried in a lyophilizer. The pellet was redissolved in 0.25% TFA and subjected to a second round purification using a fragmented gradient of buffer A (0.1% TFA) and B (0.085% TFA in 80% methanol). The single active peak fraction was collected, dried in a lyophilizer, and used for sequence analysis and electrospray ionization mass spectrometry (EIMS).

[2] = tested on: gram-positive bacteria including the multidrug-resistant Staphylococci and Enterococci; assay: spectrum of antimicrobial activity; assay type: cell-based
pneumococci = assay: antimicrobial spectrum assay; assay type: cell-based; conditions: comparison of mutacin I and mutacin III

For “mutacin I: lantibiotic from Streptococcus mutans CH43, twenty-four amino acids in its mature form, approximately 2364 Da (FSSLSLCSLGCTGVKNPSFNSYCC)”, the antimicrobial activity (enterococci) was “equal activities”, the antimicrobial activity (Group A streptococci) was “equal activities” and the “pH range of activity” value was “works in a wide range of pH”. The hydrophobicity [1] was “more hydrophobic than mutacin III”, the “resistance of sensitive bacteria” value [2] was “resistance to mutacin has not been observed” and the “spectrum of antimicrobial activity” value [2] was “wide spectrum of antimicrobial activity”. The antimicrobial activity (pneumococci) was “equal activities”.
